Results as given in patent US20240261429A1, “CPMV BINDING PEPTIDE” (The Regents of the University of California, priority 2021, published 2024).
Primed or numbered codes have the meaning given here. Ends that are not written are not given here. Peptide text beside a SMILES is read from it. * marks the point of attachment. FITC = O=C1OC2(c3ccc(O)cc3Oc3cc(O)ccc32)c2ccc(NC(=S)*)cc21; Biotin = O=C1N[C@H]2[C@H](CS[C@H]2CCCCC(=O)*)N1; FITC′ = fluorescein isothiocyanate

How the values were obtained:
[1] = target: p185HER2/neu (Homo sapiens, UniProt P04626); conditions: binding to p185HER2/neu; cited from earlier work
[2] = target: CPMV; experiment: Competitive ELISA between synthetic CBP peptides and monoclonal phage MPSEF; type: binding, Cowpea mosaic virus; conditions: for Kd: competition binding ELISA against MPSEF, read-out: dissociation constant KD
Protocol: 5 μg of CPMV (in 0.1 M bicarbonate buffer, pH 8.6) was coated into each well of a Nunc Maxisorp™ flat-bottom 96-well plate and incubated overnight at 4° C. 2% (w/v) BSA was also coated to serve as negative control. Next day, the plate was blocked with 2% (w/v) BSA and incubated at rt with shaking at 800 rpm for 1 h. Subsequently, the plate was washed thrice with 0.1% TBST for 1 min. 100 μL of amplified phage from the last biopanning cycle was added into each well followed by incubation at rt with shaking at 800 rpm for 1 h. Later, the plate was washed thrice with 0.5% TBST for 5 min. 100 μL of 1:500 dilution of HRP-conjugated anti-M monoclonal antibody (Abcam ab50370) was added and incubated at rt for 1 h with shaking at 8 rpm. The plate was again washed thrice with 0.5% TBST for 5 min followed by adding 100 μL of tetramethylbenzidine (TMB) substrate (Thermo Scientific Pierce) into each well. The plate was incubated at dark for 10 min and the absorbance was measured at 370 nm using an Infinite 200 Rx plate reader (Tecan Life Sciences) with 25 flashes in 96-well flat-bottom plate mode. Monoclonal phages with at least 0.3 difference in absorbance value between CPMV and BSA were subjected for DNA sequencing (Eurofins Genomics).
Competitive ELISA was performed as mentioned in ‘Monoclonal ELISA’ with modifications. Two-fold serial dilutions of CPMV peptide (0.500 μg, 0.250 μg, 0.125 μg, 0.063 μg, 0.031 μg, 0.016 μg, 0.008 μg, 0.004 μg, 0.002 μg) were added separately into the well together with 10^9 pfu of monoclonal phages. The reaction after incubation with TMB substrate was stopped with 50 μL of 2 N H2SO4. Colorimetric detection was carried out by measurement at 450 nm using an Infinite 200 Rx plate reader (Tecan Life Sciences) with 25 flashes in 96-well flat-bottom plate mode.
To determine the dissociation constant KD, competition binding ELISAs were set up. Here binding of synthetic CBPs (used in a dilution series) to CPMV was competed against MPSEF (used as constant amount). Phage MPSEF was detected by HRP-conjugated anti-M13 monoclonal antibody and measured at OD450 nm. CPMV bound MPSEF (OD450 nm) is inversely proportionate to the amount of peptide loaded for competition. The amount of MPSEF binding to CPMV reduced with the increasing amount of synthetic peptides, subsequently yielded lower absorbance value (FIG. 4G and FIG. 4H). […] Different modes of peptide modification resulted different IC50 and KD values despite having the exact same sequence.

[3] = tested on: CPMV coat proteins (S and L protein); experiment: Modified western blot of CBP-biotin on denatured CPMV coat proteins; type: binding, Cowpea mosaic virus; conditions: denatured S and L protein on nitrocellulose, streptavidin HRP (FIG. 3C)
Protocol: 10 μg of CPMV was loaded onto a NuPage™ 12% bis-tris gel (Thermo Fisher Scientific) and electrophoresed for 40 min at 200 V. Proteins were then blotted onto Amersham Protran 0.45 Nitrocellulose membrane (GE Healthcare) at 25 V for 2 h. The membrane was then blocked with 5% (w/v) BSA for 1 h at rt with gentle shaking. Subsequently, the membrane was washed thrice with 0.5% TBST for 1 min. 1 μg/mL of CPMV-biotin peptide was added to the membrane for 1 h incubation at rt. The membrane was then washed with 0.5% TBST for min. 100 μL of 1:500 dilution of HRP-conjugated anti-streptavidin monoclonal antibody (Abcam ab7403) was added and incubated at rt for 1 h. Following three washes with 0.5% TBST, the membrane was developed with DAB substrate kit, peroxidase HRP (Vector Laboratories) for 5-10 min. The DAB reagent was drained off and the bands were documented with ProteinSimple FluorChem®.

[4] = tested on: CPMV; experiment: Peptide ELISA of CBP-biotin on streptavidin plate; type: binding, Cowpea mosaic virus; conditions: 5 μg CPMV, vs. control without CPMV, p<0.0001 (FIG. 4E)
Protocol: The plate was blocked with 2% (w/v) BSA followed by three washings with 0.1% TBST for 1 min per wash. 5 μg of CPMV was added for binding and incubated for 1 h at rt with shaking at 8 rpm. Then the plate was washed thrice with 0.5% TBST for 5 min each wash. 100 μL of anti-CPMV rabbit polyclonal antibodies (1:500 dilution) was added to the wells followed by incubation at rt for 1 h with shaking at 800 rpm. Following three washing steps using 0.5% TBST for 5 min, 100 μL of HRP conjugated goat anti-rabbit antibodies (1:5000 dilution; Pacific Immunology) was added to the wells and incubated at rt for 1 h with shaking at 800 rpm. Finally, the plate was washed thrice with 0.5% TBST followed by adding 100 μL of TMB substrate (Thermo Scientific Pierce) into each well. The plate was incubated in the dark for 5-10 min and the reaction was stopped with 50 μL of 2N H2SO4. Absorbance was measured at 450 nm using an Infinite 200 Rx plate reader (Tecan Life Sciences) with 25 flashes in 96-well flat-bottom plate mode.
Next, Applicant performed a series of enzyme-linked immunosorbent assays (ELISAs) using the CBP-FITC and CBP-biotin to further probe their binding affinity to CPMV. CBP-biotin was coated onto a streptavidin-functionalized plate, this was followed by incubation with CPMV (CPMV was omitted for the control) (FIG. 4E). […]

[5] = tested on: CPMV; experiment: Native agarose gel electrophoresis of FITC peptides with CPMV; type: binding, Cowpea mosaic virus; conditions: 1.2% agarose gel after dual-purification
Protocol: 10 μg of FITC peptide conjugated CPMV was loaded onto a 1.2% (w/v) TAE agarose gel. 10 μg of CPMV and 1 μg of free CPMV-FITC peptide was loaded as control. The samples were electrophoresed at 110 V for 40 min.
The dual functional CBP-AHNP peptide was synthesized by fusing AHNP to the C-terminus of the CBP domain. A control peptide (*AHNP) without the CBP domain was also synthesized; both peptides were modified with a FITC label at their C terminus. CPMV-CBP-AHNP and controls were characterized by native agarose gel electrophoresis as described above.

[6] = target: T1, Cowpea mosaic virus (CPMV) (Cowpea mosaic virus), P03599; experiment: competitive ELISA against MPSEF phage (10^9 pfu) on coated CPMV
T1 chain 1: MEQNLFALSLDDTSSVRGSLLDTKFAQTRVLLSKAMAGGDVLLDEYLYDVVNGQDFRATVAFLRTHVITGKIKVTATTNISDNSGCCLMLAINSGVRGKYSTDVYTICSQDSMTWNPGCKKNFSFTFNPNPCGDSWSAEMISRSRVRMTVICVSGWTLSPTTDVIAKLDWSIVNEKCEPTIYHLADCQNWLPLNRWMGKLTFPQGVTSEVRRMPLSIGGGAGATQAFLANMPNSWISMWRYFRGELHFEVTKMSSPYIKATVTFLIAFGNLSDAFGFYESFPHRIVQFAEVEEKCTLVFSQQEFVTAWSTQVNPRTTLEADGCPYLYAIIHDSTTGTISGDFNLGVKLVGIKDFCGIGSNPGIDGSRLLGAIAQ
T1 chain 2: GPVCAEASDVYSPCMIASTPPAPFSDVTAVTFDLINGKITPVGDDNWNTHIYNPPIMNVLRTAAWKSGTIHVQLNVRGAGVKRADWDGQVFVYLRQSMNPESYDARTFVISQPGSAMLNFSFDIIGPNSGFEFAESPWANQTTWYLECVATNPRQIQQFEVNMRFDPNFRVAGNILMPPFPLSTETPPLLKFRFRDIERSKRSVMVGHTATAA

[7] = target: T1, Cowpea mosaic virus (CPMV) (Cowpea …); experiment: from competition binding ELISA against MPSEF phage on coated CPMV
[8] = target: T1, Cowpea mosaic virus (CPMV) (Cowpea …); experiment: UV/visible spectroscopy of the purified complex (500-molar excess of peptide)
[9] = peptide dilution series competed against constant MPSEF phage for CPMV, OD450 nm

In the case of “FCDGFYACYMDV [AHNP, cyclic peptide derived from monoclonal antibody trastuzumab, HER2 ligand]”, the Kd [1] is given as 0.3 µM.

In the case of CC(C)[C@H](NC(=O)[C@H](CCCNC(=N)N)NC(=O)[C@H](Cc1c[nH]c2ccccc12)NC(=O)CN)C(=O)N[C@@H](CO)C(=O)N[C@@H](CCC(=O)O)C(=O)N[C@@H](Cc1ccccc1)C(=O)NCC(=O)NCC(=O)NCC(=O)N[C@@H](CO)C(=O)N[C@@H](CCCCNC(=O)CCCC[C@@H]1SC[C@@H]2NC(=O)N[C@@H]21)C(=O)O [CBP-biotin] (H-GWRVSEFGGGSK(Biotin)-OH; N-terminus and C-terminus assumed), the Kd [2] is reported as roughly 0.007 µM, the “half maximal inhibition concentration (IC50)” value [2, 9] is reported as 0.17 µg and the IC50 ([2]; peptide dilution series competed against constant MPSEF phage for CPMV, OD450 nm, read-out: half maximal inhibition concentration (IC50)) is reported as 1.14 µM. For the same molecule, the “binding to CPMV coat proteins in western blot” value [3] was “bound to the CPMV coat proteins” and the “CPMV binding in ELISA” value [4] was “consistent with CPMV binding”.

For CC(C)[C@H](NC(=O)[C@H](CCCNC(=N)N)NC(=O)[C@H](Cc1c[nH]c2ccccc12)NC(=O)CN)C(=O)N[C@@H](CO)C(=O)N[C@@H](CCC(=O)O)C(=O)N[C@@H](Cc1ccccc1)C(=O)NCC(=O)NCC(=O)NCC(=O)N[C@@H](CO)C(=O)N[C@@H](CCCCNC(=S)Nc1ccc2c(c1)C(=O)OC21c2ccc(O)cc2Oc2cc(O)ccc21)C(=O)O [CBP-FITC] (H-GWRVSEFGGGSK(FITC)-OH; N-terminus and C-terminus assumed), the Kd [2] was roughly 0.7 µM and the “half maximal inhibition concentration (IC50)” value [2, 9] was 0.56 µg.

For “N-GWRVSEF-KKKKKKKKDDDD-FCDGFYACYMDVK/FITC/-C (GWRVSEFKKKKKKKKDDDDFCDGFYACYMDVK; not fully specified (C-terminus, bridges); cysteine pairing not given here; also: FITC label at C-terminal Lys) [CBP-AHNP, dual functional peptide, AHNP fused to the C-terminus of the CBP domain, FITC label]”, the “labeling of CPMV seen by native agarose gel electrophoresis (FITC signal with RNA and protein band)” value [5] was “successful labeling”.

With “N-KKKKKKKKDDDD-FCDGFYACYMDVK/FITC/-C (KKKKKKKKDDDDFCDGFYACYMDVK; not fully specified (C-terminus, bridges); cysteine pairing not given here; also: FITC label at C-terminal Lys) [*AHNP, control peptide without the CBP domain, FITC label at C terminus, reference compound]” the “labeling of CPMV seen by native agarose gel electrophoresis (FITC signal with RNA and protein band)” value [5] was “no non-specific interaction”.

In the case of GWRVSEFGGGSK-biotin (not fully specified (residue 12)) [CBP-biotin (N-…/biotin/-C)], the IC50 [6] is reported as 1.14 µM and the Kd [7] is reported as 0.007 µM.

GWRVSEFGGGSK-{FITC′} (not fully specified (residue 12)) [CBP-FITC (N-…/FITC/-C)] gave an IC50 [6] of 3.34 µM, a Kd [7] of 0.7 µM and a CBP-FITC peptides per CPMV particle (peptides per CPMV particle) [8] of 6.
